These results are taken from US20250388604A1, “Compounds and Their Use as PDE4 Activators” (Mironid Limited, priority 2022, published 2025).

The first assay concerns m-IMCD3 cells. Description: Inhibition of PGE2-stimulated in vitro cyst formation in m-IMCD3 cells. Type of assay: cell-based, mouse. The conditions noted are these: 3 μM; mean cyst area, 100% for (DMSO + PGE2) and 0% for DMSO control; 6 days of culture. A digest of the protocol:
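Mean cyst area after 6 days, expressed relative to DMSO+PGE2 (100%) and DMSO alone (0%), from z-stack images. Mouse m-IMCD3 spheroids grew in collagen I/Matrigel gels and received PGE2 (100 nM final) with test compound (0.1% DMSO) starting 18–24 h post-plating, media refreshed at day 2 or 3.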
As for `CC(O)(C(=O)N1CCc2nc(N3C4CCC3CNC4)sc2C1)C1CCCC1` (single isomer, unassigned) [Example 255, 1-(2-(3,8-diazabicyclo[3.2.1]octan-8-yl)-6,7-dihydrothiazolo[5,4-c]pyridin-5(4H)-yl)-2-cyclopentyl-2-hydroxypropan-1-one], the “% Cyst area after incubation with 3 μM test compound” value is given as −5%.

Staying with this assay, now noted: Mus musculus, mIMCD3, 144 h, 3 μM; mean cyst area, 100% for (DMSO + PGE2) and 0% for DMSO control; 6 days of culture; read-out: % Cyst area after incubation with 3 μM test compound.
As to `O=C(c1ccc(F)cc1F)N1CCc2nc(N3C4CCC3CNC4)sc2C1` [Example 212, (2-(3,8-diazabicyclo[3.2.1]octan-8-yl)-6,7-dihydrothiazolo[5,4-c]pyridin-5(4H)-yl)(2,4-difluorophenyl)methanone], the activity at 3 µM was determined as 0%. With `O=C(c1cccc2c1OCO2)N1CCc2nc(N3C4CCC3CNC4)sc2C1` [Example 234, (2-(3,8-diazabicyclo[3.2.1]octan-8-yl)-6,7-dihydrothiazolo[5,4-c]pyridin-5(4H)-yl)(benzo[d][1,3]dioxol-4-yl)methanone], the activity at 3 µM came to 1%. Still for that read-out and setting: the result for `O=C(c1cccc(OC(F)(F)F)c1)N1CCc2nc(N3C4CCC3CNC4)sc2C1` [Example 205, (2-(3,8-diazabicyclo[3.2.1]octan-8-yl)-6,7-dihydrothiazolo[5,4-c]pyridin-5(4H)-yl)(3-(trifluoromethoxy)phenyl)methanone] reads 0%; that for `O=C(c1nccc2ccccc12)N1CCc2nc(N3C4CCC3CNC4)sc2C1` [Example 186, (2-(3,8-diazabicyclo[3.2.1]octan-8-yl)-6,7-dihydrothiazolo[5,4-c]pyridin-5(4H)-yl)(isoquinolin-1-yl)methanone], 0%. Still for that read-out and setting: as for `O=C(COc1ccccc1C(F)F)N1CCc2nc(N3C4CCC3CNC4)sc2C1` [Example 173, 1-(2-(3,8-diazabicyclo[3.2.1]octan-8-yl)-6,7-dihydrothiazolo[5,4-c]pyridin-5(4H)-yl)-2-(2-(difluoromethyl)phenoxy)ethan-1-one], the figure is -2%. Consider `O=C(c1coc2ccccc12)N1CCc2nc(N3C4CCC3CNC4)sc2C1` [Example 187, (2-(3,8-diazabicyclo[3.2.1]octan-8-yl)-6,7-dihydrothiazolo[5,4-c]pyridin-5(4H)-yl)(benzofuran-3-yl)methanone], for which the activity at 3 µM is -8%. Still for that read-out and setting: as for `O=C(c1ccccc1F)N1CCc2nc(N3C4CCC3CNC4)sc2C1` [Example 209, (2-(3,8-diazabicyclo[3.2.1]octan-8-yl)-6,7-dihydrothiazolo[5,4-c]pyridin-5(4H)-yl)(2-fluorophenyl)methanone], the figure is -5%; as for `Cc1ccc(C(=O)N2CCc3nc(N4C5CCC4CNC5)sc3C2)cc1` [Example 196, (2-(3,8-diazabicyclo[3.2.1]octan-8-yl)-6,7-dihydrothiazolo[5,4-c]pyridin-5(4H)-yl)(p-tolyl)methanone], -1%; as for `O=C(CC1CCCC1)N1Cc2sc(N3C4CCC3CNC4)nc2C2(CC2)C1` [Example 265, 1-(2′-(3,8-diazabicyclo[3.2.1]octan-8-yl)-4′H-spiro[cyclopropane-1,7′-thiazolo[5,4-c]pyridin]-5′(6′H)-yl)-2-cyclopentylethan-1-one], -3%. Still for that read-out and setting: as for `O=C(N1CCc2nc(N3C4CCC3CNC4)sc2C1)C(F)(F)c1ccnc(F)c1` [Example 251, 1-(2-(3,8-diazabicyclo[3.2.1]octan-8-yl)-6,7-dihydrothiazolo[5,4-c]pyridin-5(4H)-yl)-2,2-difluoro-2-(2-fluoropyridin-4-yl)ethan-1-one], the figure is -6%; as for `O=C(c1ccc(F)cn1)N1CCc2nc(N3C4CCC3CNC4)sc2C1` [Example 202, (2-(3,8-diazabicyclo[3.2.1]octan-8-yl)-6,7-dihydrothiazolo[5,4-c]pyridin-5(4H)-yl)(5-fluoropyridin-2-yl)methanone], -4%. Take `O=C(c1cccc2c1OC(F)(F)O2)N1CCc2nc(N3C4CCC3CNC4)sc2C1` [Example 233, (2-(3,8-diazabicyclo[3.2.1]octan-8-yl)-6,7-dihydrothiazolo[5,4-c]pyridin-5(4H)-yl)(2,2-difluorobenzo[d][1,3]dioxol-4-yl)methanone]: the activity at 3 µM was -2%.

With `O=C(C1COc2ccccc2C1)N1CCc2nc(N3C4CCC3CNC4)sc2C1` (stereo not shown) [Example 182, (2-(3,8-diazabicyclo[3.2.1]octan-8-yl)-6,7-dihydrothiazolo[5,4-c]pyridin-5(4H)-yl)(chroman-3-yl)methanone], the activity at 3 µM amounted to 1%. In the case of `O=C(c1cccc(OC(F)F)c1)N1CCc2nc(N3C4CCC3CNC4)sc2C1` [Example 206, (2-(3,8-diazabicyclo[3.2.1]octan-8-yl)-6,7-dihydrothiazolo[5,4-c]pyridin-5(4H)-yl)(3-(difluoromethoxy)phenyl)methanone], the activity at 3 µM stood at 6%.

Staying with this assay, now noted: Mus musculus, mIMCD3, 144 h, 10 μM; mean cyst area, 100% for (DMSO + PGE2) and 0% for DMSO control; 6 days of culture; read-out: % Cyst area after incubation with 10 μM test compound.
Turning to `O=C(C(F)C1CCCC1)N1CCc2nc(N3C4CCC3CNC4)sc2C1` (stereo not shown) [Example 34, 1-(2-(3,8-diazabicyclo[3.2.1]octan-8-yl)-6,7-dihydrothiazolo[5,4-c]pyridin-5(4H)-yl)-2-cyclopentyl-2-fluoroethan-1-one], the activity at 10 µM is -2%. For `O=C(COc1ccnc(F)c1)N1CCc2nc(N3C4CCC3CNC4)sc2C1` [Example 73, 1-(2-(3,8-diazabicyclo[3.2.1]octan-8-yl)-6,7-dihydrothiazolo[5,4-c]pyridin-5(4H)-yl)-2-((2-fluoropyridin-4-yl)oxy)ethan-1-one], the activity at 10 µM came to 3%. The same measure, in the same setting: as for `O=C(CC1CCCC1)N1CCc2nc(N3CCN[C@@H](CO)C3)sc2C1` [Example 117, (R)-2-cyclopentyl-1-(2-(3-(hydroxymethyl)piperazin-1-yl)-6,7-dihydrothiazolo[5,4-c]pyridin-5(4H)-yl)ethan-1-one], the figure is 1%; as for `O=C(NCc1ccc(C(F)(F)F)cc1)N1CCc2nc(N3C4CCC3CNC4)sc2C1` [Example 56, 2-(3,8-diazabicyclo[3.2.1]octan-8-yl)-N-(4-(trifluoromethyl)benzyl)-6,7-dihydrothiazolo[5,4-c]pyridine-5(4H)-carboxamide], -6%; as for `CC1(C)CN(C(=O)CC2CCC(F)(F)CC2)Cc2sc(N3C4CCC3CNC4)nc21` [Example 98, 1-(2-(3,8-diazabicyclo[3.2.1]octan-8-yl)-7,7-dimethyl-6,7-dihydrothiazolo[5,4-c]pyridin-5(4H)-yl)-2-(4,4-difluorocyclohexyl)ethan-1-one], 3%. Still for that read-out and setting: as for `O=C(CC1CCCC1)N1CCc2nc(N3CCNC[C@H]3CO)sc2C1` [Example 284, (S)-2-cyclopentyl-1-(2-(2-(hydroxymethyl)piperazin-1-yl)-6,7-dihydrothiazolo[5,4-c]pyridin-5(4H)-yl)ethan-1-one], the figure is 19%; as for `CC[C@@H](C)C(=O)N1CCc2nc(N3C4CCC3CNC4)sc2C1` [Example 16, (2R)-1-(2-(3,8-diazabicyclo[3.2.1]octan-8-yl)-6,7-dihydrothiazolo[5,4-c]pyridin-5(4H)-yl)-2-methylbutan-1-one], -2%. With `O=C(N1CCc2nc(N3C4CCC3CNC4)sc2C1)C(F)(F)C1CCCC1` [Example 24, 1-(2-(3,8-diazabicyclo[3.2.1]octan-8-yl)-6,7-dihydrothiazolo[5,4-c]pyridin-5(4H)-yl)-2-cyclopentyl-2,2-difluoroethan-1-one], the activity at 10 µM was 0%. Same read-out and setting: as for `O=C(CC1CCCC1)N1CCc2nc(N3CCN[C@H](CO)C3)sc2C1` [Example 116, (S)-2-cyclopentyl-1-(2-(3-(hydroxymethyl)piperazin-1-yl)-6,7-dihydrothiazolo[5,4-c]pyridin-5(4H)-yl)ethan-1-one], the figure is 55%; as for `O=C(Cc1cnccn1)N1CCc2nc(N3C4CCC3CNC4)sc2C1` [Example 136, 1-(2-(3,8-diazabicyclo[3.2.1]octan-8-yl)-6,7-dihydrothiazolo[5,4-c]pyridin-5(4H)-yl)-2-(pyrazin-2-yl)ethan-1-one], 18%; as for `O=C(N1CCCC1)N1CCc2nc(N3C4CCC3CNC4)sc2C1` [Example 60, (2-(3,8-diazabicyclo[3.2.1]octan-8-yl)-6,7-dihydrothiazolo[5,4-c]pyridin-5(4H)-yl)(pyrrolidin-1-yl)methanone], 2%.

For `O=C(COc1ccc(F)cc1)N1CCn2nc(N3C4CCC3CNC4)cc2C1` [Example 72, 1-(2-(3,8-diazabicyclo[3.2.1]octan-8-yl)-6,7-dihydropyrazolo[1,5-a]pyrazin-5(4H)-yl)-2-(4-fluorophenoxy)ethan-1-one], the activity at 10 µM was -3%. Same read-out and setting: the result for `O=C(CC1CCC(F)(F)CC1)N1CCn2nc(N3C4CCC3CNC4)cc2C1` [Example 71, 1-(2-(3,8-diazabicyclo[3.2.1]octan-8-yl)-6,7-dihydropyrazolo[1,5-a]pyrazin-5(4H)-yl)-2-(4,4-difluorocyclohexyl)ethan-1-one] reads -3%; that for `CN1CCN(c2nc3c(s2)CN(C(=O)CC2CCC(F)(F)CC2)CC3(C)C)CC1` [Example 104, 2-(4,4-difluorocyclohexyl)-1-(7,7-dimethyl-2-(4-methylpiperazin-1-yl)-6,7-dihydrothiazolo[5,4-c]pyridin-5(4H)-yl)ethan-1-one], 0%. On the same count and under the same terms, as for `O=C(CC(F)(F)F)N1CCc2nc(N3C4CCC3CNC4)sc2C1` [Example 26, 1-(2-(3,8-diazabicyclo[3.2.1]octan-8-yl)-6,7-dihydrothiazolo[5,4-c]pyridin-5(4H)-yl)-3,3,3-trifluoropropan-1-one], the figure is 1%; as for `O=C(Cc1ccc(F)cc1)N1CCc2nc(N3C4CCC3CNC4)sc2C1` [Example 25, 1-(2-(3,8-diazabicyclo[3.2.1]octan-8-yl)-6,7-dihydrothiazolo[5,4-c]pyridin-5(4H)-yl)-2-(4-fluorophenyl)ethan-1-one], 6%.
